Marks after values point to notes of the source that are not given here.
Assays:
[1] = Plasma pharmacokinetics of regorafenib, M-2 and M-5; assay type: in vivo, human; details: for tmax,md: median (range printed in cell); for tmax,md / AUC(0–24)md Ratio (90% CI) / Cmax,md Ratio (90% CI): n = 6; for AUC(0–24)md Ratio (90% CI) / Cmax,md Ratio (90% CI): Ratio = C2D1:C1D21; for coefficient of variation (CV) in AUC and Cmax: high variability, Table 3A; for Tmax: human, plasma, oral
[2] = Plasma pharmacokinetics of pemetrexed; assay type: in vivo, human
human xenograft models = details: greater potency than sorafenib; ref [4], [22]; cited from earlier work
[3] = tested on: patients with advanced nsNSCLCs; details: single agent, ref [7], cited from earlier work
patients with NSCLCs = details: sunitinib added to cisplatin and pemetrexed; ref [20]; cited from earlier work
[4] = C2 D1, following cisplatin and pemetrexed
[5] = Cycle 1, Day 1 vs Cycle 2, Day 1

Compound: CNC(=O)c1cc(Oc2ccc(NC(=O)Nc3ccc(Cl)c(C(F)(F)F)c3)c(F)c2)cc[n+]1[O-] [M-2]
- tmax,md ([1]; C1 D21, regorafenib alone): 4.0 (2–24 ^a) hours
- tmax,md [1, 4]: 5.0 (0–6.25 ^a) hours
- mean AUC(0–24)md lower following the pemetrexed and cisplatin treatment ([1]; C2 D1 vs C1 D21): 48%
- mean Cmax,md lower following the pemetrexed and cisplatin treatment ([1]; C2 D1 vs C1 D21): 38%
- AUC(0–24)md Ratio (90% CI) [1]: 0.52 (0.44–0.61)
- Cmax,md Ratio (90% CI) [1]: 0.62 (0.46–0.83)
- coefficient of variation (CV) in AUC and Cmax [1]: > 75%

Compound: NC(=O)c1cc(Oc2ccc(NC(=O)Nc3ccc(Cl)c(C(F)(F)F)c3)c(F)c2)cc[n+]1[O-] [M-5]
- tmax,md ([1]; C1 D21, regorafenib alone): 16.0 (4–24 ^a) hours
- tmax,md [1, 4]: 5.0(0–6.25 ^a) hours
- Mean AUC(0–24)md and Cmax,md on both days (in words) ([1]; C2 D1 vs C1 D21): comparable
- AUC(0–24)md Ratio (90% CI) [1]: 0.84 (0.67–1.06)
- Cmax,md Ratio (90% CI) [1]: 0.97 (0.78–1.20)
- coefficient of variation (CV) in AUC and Cmax [1]: > 150%

Compound: Nc1nc2[nH]cc(CCc3ccc(C(=O)N[C@@H](CCC(=O)O)C(=O)O)cc3)c2c(=O)[nH]1 [Pemetrexed]
- mean AUC on both days (in words) [2, 5]: comparable
- mean pemetrexed concentration, before vs after regorafenib (in words) [2, 5]: no difference
- Cmax after regorafenib (in words) ([2]; Cycle 2, Day 1 vs Cycle 1, Day 1): slightly increased
- AUC(0–infinity) Ratio (90% CI) ([2]; Ratio = C2D1:C1D1, n = 8): 1.05 (0.96–1.16)
- Cmax Ratio (90% CI) ([2]; Ratio = C2D1:C1D1, n = 8): 1.20 (1.05–1.35)

Compound: CNC(=O)c1cc(Oc2ccc(NC(=O)Nc3ccc(Cl)c(C(F)(F)F)c3)c(F)c2)ccn1 [Regorafenib, reference compound]
- potency in human xenograft models relative to sorafenib (human xenograft models): ~ 3 times
- Mean AUC(0–24)md and Cmax,md on both days (in words) ([1]; C2 D1 vs C1 D21): comparable
- AUC(0–24)md Ratio (90% CI) [1]: 0.93 (0.77–1.12)
- Cmax,md Ratio (90% CI) [1]: 1.03 (0.70–1.51)
- Tmax [1]: 4 h
- Tmax ([1]; 60 mg/day): 4 h
- patients with stable disease for ≥12 weeks ([3]; 4 of 18 evaluable patients): 22%
- Grade 4 or 5 toxicities ([3]; 23 patients): no Grade 4 or 5 toxicities were observed
- progression-free survival of one patient ([3]; one patient): ~40 weeks
- tumor reduction in one patient ([3]; two non-consecutive measurements): > 30%

Compound: CCN(CC)CCNC(=O)c1c(C)[nH]c(/C=C2\C(=O)Nc3ccc(F)cc32)c1C [sunitinib]
- myelosuppression (patients with NSCLCs): substantial myelosuppression

From article PMC4750397 (Clinical lung cancer, 2015)
